According to patent US12202835B2, “Substituted aromatic ring-linked dioxinoquinazolines and dioxinoquinolines as kinase inhibitors” (BEIJING SCITECH-MQ PHARMACEUTICALS LIMITED, priority 2018, dated 2025):

How the values were obtained:
[1] = tested on: Ba/F3 LMNA-NTRK1 cells; assay: Assay for inhibiting the proliferation of Ba/F3 LMNA-NTRK1 cells (CCK-8); assay type: cell-based; conditions: Mus musculus, BaF3
Experimental: In particular, the method of the assay of small molecular compounds for inhibiting cell proliferation is as follows: • 1. Cells cultured to a logarithmic growth phase (adherent cells need to be digested with trypsin and neutralized) were taken, pipetted evenly, transferred to a 15 mL centrifuge tube, and centrifuged at 1000 rpm at room temperature for 4 minutes; • 2. The supernatant was discarded; 5 mL of complete medium was added and pipetted evenly; 10 μL of cell suspension was taken out, mixed well with 10 μL of 0.4% trypan blue, and counted under a cell counter; the proportion of living cells was ensured to be above 90%; • 3. 80 μL of cell suspension per well was seeded into a 96-well plate according to the conditions shown in the attached table, and cultured overnight; in the outer 36 wells of the 96-well plate, no cells were added but only sterile water was added; only the inner 60 wells were used for cell assay and control; • 4. […] 20 μL of the corresponding compounds with different concentration gradients were added to each well of assay wells of the 96-well plate; 20 μL of complete medium was added to positive and negative control wells and shaken well; and the final concentration of DMSO in each well was 0.25%; • 6. After 72 hours of incubation, 10 μL of CCK-8 reagent was added to each well and further incubated at 37° C. for 1-2 hours; and the OD value was read at 450 nm; • 7. Cell survival rate (%)=[(As−Ab)/(Ac−Ab)]*100% • As: Assay well (medium containing cells, CCK-8, compound), • Ac: Control well (medium containing cells, CCK-8), • Ab: Blank well (CCK-8, medium without cell and compound), • 8. The values were imported into Graphpad Prism 5 software for IC50 calculation.

[2] = tested on: MHCC97H cells; assay: Assay for inhibiting the proliferation of MHCC97H cells (CCK-8); assay type: cell-based; conditions: Homo sapiens
Experimental: (§1) In particular, the method of the assay of small molecular compounds for inhibiting cell proliferation is as follows: • 1. Cells cultured to a logarithmic growth phase (adherent cells need to be digested with trypsin and neutralized) were taken, pipetted evenly, transferred to a 15 mL centrifuge tube, and centrifuged at 1000 rpm at room temperature for 4 minutes; • 2. The supernatant was discarded; 5 mL of complete medium was added and pipetted evenly; 10 μL of cell suspension was taken out, mixed well with 10 μL of 0.4% trypan blue, and counted under a cell counter; the proportion of living cells was ensured to be above 90%; • 3. 80 μL of cell suspension per well was seeded into a 96-well plate according to the conditions shown in the attached table, and cultured overnight; in the outer 36 wells of the 96-well plate, no cells were added but only sterile water was added; only the inner 60 wells were used for cell assay and control; • 4. 5×compound dilution: the compounds were serially diluted 3-fold to obtain a total of 9 concentrations; 80-fold overall dilution was completed with complete medium, the resulting concentration was 5 times the final drug concentration, and DMSO concentration was 1.25%; • 5. 20 μL of the corresponding compounds with different concentration gradients were added to each well of assay wells of the 96-well plate; 20 μL of complete medium was added to positive and negative control wells and shaken well; and the final concentration of DMSO in each well was 0.25%; • 6. After 72 hours of incubation, 10 μL of CCK-8 reagent was added to each well and further incubated at 37° C. for 1-2 hours; and the OD value was read at 450 nm; • 7. Cell survival rate (%)=[(As−Ab)/(Ac−Ab)]*100% • As: Assay well (medium containing cells, CCK-8, compound), • Ac: Control well (medium containing cells, CCK-8), • Ab: Blank well (CCK-8, medium without cell and compound), • 8. The values were imported into Graphpad Prism 5 software for IC50 calculation.

[3] = tested on: Ba/F3-AXL cells; assay: Assay for inhibiting the proliferation of Ba/F3-AXL cells (CCK-8); assay type: cell-based; conditions: 72 hours of incubation, medium with 100 ng/mL hGas6, CCK-8
Experimental: The values were then imported into Graphpad Prism 5 software for curve fitting, and IC50 was calculated.

[4] = tested on: EBC1 cells; assay: Assay for inhibiting the proliferation of EBC1 cells (CCK-8); assay type: cell-based; conditions: Homo sapiens, EBC-1
Experimental: as §1

[5] = biological target: TRKA kinase (Homo sapiens (Human), UniProt P04629); assay: Assay of small molecular compounds for inhibiting the activity of TRKA kinase (LANCE TR-FRET); assay type: biochemical
In short: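 TRKA (supplied as 2 nM 2× solution) was pre-reacted with compounds for 5 min at room temperature before a 4× ULight-TK peptide/ATP mix (400 nM/40 μM) started the 60-min dark reaction at 1% DMSO. After stop and 60-min detection, TR-FRET was read.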

[6] = biological target: MER kinase (Homo sapiens (Human), UniProt Q12866); assay: Assay of small molecular compounds for inhibiting the activity of MER kinase (LANCE TR-FRET); assay type: biochemical
In short: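 LANCE TR-FRET readout of ULight-poly GT phosphorylation by MER kinase; compound final range 0.042-2500 nM, 3-fold steps, 5 min enzyme preincubation. Reaction 60 min at room temperature in the dark with substrate/ATP (4× at 200 nM/20 μM), 1% DMSO, then stopped and developed 60 min; IC50 by curve fit.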

[7] = biological target: VEGFR-2 kinase (Homo sapiens (Human), UniProt P35968); assay: Assay of small molecular compounds for inhibiting the activity of VEGFR-2 kinase (LANCE TR-FRET); assay type: biochemical; conditions: read-out: VEGFR2 IC50
Experimental: The assay is based on the LANCE TR-FRET technology of Perkin Elmer Inc., and the assay method is as follows: • 1. Dilution of compounds: a total of 11 concentrations were obtained using a 3-fold gradient dilution from the highest concentration of 2500 nM (the maximum final concentration of the drug used in this assay was 2500 nM, and the minimum final concentration was 0.042 nM). • 2. 2.5 μL of the gradient-diluted compounds were taken with a transfer pipette to a 384-well plate. • 3. Addition of enzyme: 5 μL of 2×VEGFR2 kinase solution (with a concentration of 0.5 nM) was taken with a transfer pipette to the corresponding reaction well of the 384-well plate, mixed well and pre-reacted at room temperature for 30 minutes. • 4. 2.5 μL 4× Ultra ULight™-JAK-1 (Tyr1023) Peptide (with a concentration of 200 nM)/ATP (with a concentration of 40 μM) mixture was taken with a transfer pipette to the corresponding reaction well of the 384-well plate. • 5. Negative control: 2.5 μL/well 4× substrate/ATP mixture and 7.5 μL 1× Kinase Assay Buffer were added to the wells of the 384-well plate. • 6. Positive control: 2.5 μL/well 4× substrate/ATP mixture, 2.5 μL/well 1× Kinase Assay Buffer containing 16% DMSO, and 5 μL/well 2×VEGFR-2 kinase solution were added to the 384-well plate. The final concentration of DMSO in the reaction system was 4%. • 7. The mixture was mixed well and then centrifuged and reacted at room temperature in dark for 60 min. • 8. Termination of the enzymatic reaction: 5 μL of 4× stop solution was taken with a transfer pipette to the wells of the 384-well plate, mixed and then centrifuged, and reacted at room temperature for 5 min. • 9. Development of the reaction: 5 μL of 4× detection solution was taken with a transfer pipette to the wells of the 384-well plate for color development, and the mixture was mixed and then centrifuged and reacted at room temperature for 60 min. • 10. The 384-well plate was placed into the Envision plate reader and the signal was detected using the appropriate program. • 11. Analysis and processing of the raw data: The drug concentrations and the corresponding inhibition rates were input into GraphPad Prism5 for calculation, and the inhibition rate of the compounds were calculated as follows: inhibition rate (%)=(reading of positive well−reading of experimental well)/(reading of positive control well−reading of negative control well)×100%. Processing with GraphPad Prism5 software yielded the corresponding IC50 values (the concentration of the compound at which 50% of the highest inhibition of the enzyme is achieved).

[8] = tested on: Ba/F3 LMNA-NTRK1-G595R cells; assay: Assay for inhibiting the proliferation of Ba/F3 LMNA-NTRK1-G595R cells (CCK-8); assay type: cell-based; conditions: Mus musculus, BaF3
Experimental: as §1

[9] = biological target: c-MET kinase (Homo sapiens (Human), UniProt P08581); assay: Assay of small molecular compounds for inhibiting the activity of c-MET kinase (LANCE TR-FRET); assay type: biochemical; conditions: read-out: CMET IC50
In short: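 Eleven final concentrations from 2500 nM down to 0.042 nM, in 4% DMSO, were tested against human c-MET (2× stock 2 nM), with compound and enzyme premixed for 5 min. The phosphorylation reaction used 4× stock of 400 nM ULight-JAK-1 peptide and 40 μM ATP for 60 min at room temperature, then stop and detection steps. TR-FRET percent inhibition against positive and negative controls gave the IC50.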

TRKA kinase, sequence (P04629 33-796): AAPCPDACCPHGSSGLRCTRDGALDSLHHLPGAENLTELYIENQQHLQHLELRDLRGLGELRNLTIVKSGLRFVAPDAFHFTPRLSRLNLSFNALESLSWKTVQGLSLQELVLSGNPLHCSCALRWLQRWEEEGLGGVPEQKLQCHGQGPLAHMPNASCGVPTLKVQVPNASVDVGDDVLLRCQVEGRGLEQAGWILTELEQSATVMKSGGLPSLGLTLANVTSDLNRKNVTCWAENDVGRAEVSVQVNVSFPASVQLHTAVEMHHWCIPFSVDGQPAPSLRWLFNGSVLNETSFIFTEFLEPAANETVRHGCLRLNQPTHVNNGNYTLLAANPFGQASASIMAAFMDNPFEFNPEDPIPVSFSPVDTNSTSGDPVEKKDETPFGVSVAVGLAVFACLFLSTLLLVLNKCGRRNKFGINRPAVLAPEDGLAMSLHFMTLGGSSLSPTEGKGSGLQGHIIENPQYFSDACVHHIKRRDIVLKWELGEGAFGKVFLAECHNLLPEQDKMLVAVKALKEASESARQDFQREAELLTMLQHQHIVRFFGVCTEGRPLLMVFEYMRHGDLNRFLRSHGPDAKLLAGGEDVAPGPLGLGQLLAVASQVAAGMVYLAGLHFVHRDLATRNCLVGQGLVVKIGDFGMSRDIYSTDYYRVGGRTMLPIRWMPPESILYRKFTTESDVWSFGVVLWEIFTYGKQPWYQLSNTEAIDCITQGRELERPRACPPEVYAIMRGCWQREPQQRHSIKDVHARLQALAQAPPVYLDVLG
c-MET kinase, sequence (P08581 25-1390): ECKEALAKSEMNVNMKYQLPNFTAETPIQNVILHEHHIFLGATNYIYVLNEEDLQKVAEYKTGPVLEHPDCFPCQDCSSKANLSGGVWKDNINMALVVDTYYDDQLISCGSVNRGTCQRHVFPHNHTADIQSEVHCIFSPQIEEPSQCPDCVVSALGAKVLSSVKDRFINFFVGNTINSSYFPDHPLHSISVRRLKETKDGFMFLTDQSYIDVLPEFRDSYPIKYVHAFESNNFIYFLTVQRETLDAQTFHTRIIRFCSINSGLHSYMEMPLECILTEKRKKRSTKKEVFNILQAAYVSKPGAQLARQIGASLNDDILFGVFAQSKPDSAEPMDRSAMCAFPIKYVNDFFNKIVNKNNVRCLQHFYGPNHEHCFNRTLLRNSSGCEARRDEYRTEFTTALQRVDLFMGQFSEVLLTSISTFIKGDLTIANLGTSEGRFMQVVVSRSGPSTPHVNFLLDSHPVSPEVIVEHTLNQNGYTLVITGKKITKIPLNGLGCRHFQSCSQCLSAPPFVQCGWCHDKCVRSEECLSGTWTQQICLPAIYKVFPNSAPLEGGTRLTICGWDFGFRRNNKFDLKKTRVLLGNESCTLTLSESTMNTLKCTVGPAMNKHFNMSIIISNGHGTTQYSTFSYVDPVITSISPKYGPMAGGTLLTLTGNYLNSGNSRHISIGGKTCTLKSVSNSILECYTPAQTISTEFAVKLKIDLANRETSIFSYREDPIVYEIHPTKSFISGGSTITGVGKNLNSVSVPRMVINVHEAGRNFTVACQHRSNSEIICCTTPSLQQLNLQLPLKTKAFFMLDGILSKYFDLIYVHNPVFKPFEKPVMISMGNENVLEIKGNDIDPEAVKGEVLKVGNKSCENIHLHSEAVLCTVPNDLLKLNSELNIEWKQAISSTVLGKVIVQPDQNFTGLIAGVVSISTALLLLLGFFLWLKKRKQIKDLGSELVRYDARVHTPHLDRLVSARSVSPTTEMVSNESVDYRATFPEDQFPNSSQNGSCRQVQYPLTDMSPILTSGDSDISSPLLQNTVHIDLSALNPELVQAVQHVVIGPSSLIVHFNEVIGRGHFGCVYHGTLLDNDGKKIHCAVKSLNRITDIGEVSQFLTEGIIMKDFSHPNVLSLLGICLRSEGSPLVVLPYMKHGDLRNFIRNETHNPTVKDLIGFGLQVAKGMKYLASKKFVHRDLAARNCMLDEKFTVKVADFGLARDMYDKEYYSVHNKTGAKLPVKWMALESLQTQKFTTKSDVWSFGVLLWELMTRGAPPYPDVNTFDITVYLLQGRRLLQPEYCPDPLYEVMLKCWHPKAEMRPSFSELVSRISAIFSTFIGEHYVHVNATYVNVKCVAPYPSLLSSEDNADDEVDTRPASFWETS
MER kinase, sequence (Q12866 21-999): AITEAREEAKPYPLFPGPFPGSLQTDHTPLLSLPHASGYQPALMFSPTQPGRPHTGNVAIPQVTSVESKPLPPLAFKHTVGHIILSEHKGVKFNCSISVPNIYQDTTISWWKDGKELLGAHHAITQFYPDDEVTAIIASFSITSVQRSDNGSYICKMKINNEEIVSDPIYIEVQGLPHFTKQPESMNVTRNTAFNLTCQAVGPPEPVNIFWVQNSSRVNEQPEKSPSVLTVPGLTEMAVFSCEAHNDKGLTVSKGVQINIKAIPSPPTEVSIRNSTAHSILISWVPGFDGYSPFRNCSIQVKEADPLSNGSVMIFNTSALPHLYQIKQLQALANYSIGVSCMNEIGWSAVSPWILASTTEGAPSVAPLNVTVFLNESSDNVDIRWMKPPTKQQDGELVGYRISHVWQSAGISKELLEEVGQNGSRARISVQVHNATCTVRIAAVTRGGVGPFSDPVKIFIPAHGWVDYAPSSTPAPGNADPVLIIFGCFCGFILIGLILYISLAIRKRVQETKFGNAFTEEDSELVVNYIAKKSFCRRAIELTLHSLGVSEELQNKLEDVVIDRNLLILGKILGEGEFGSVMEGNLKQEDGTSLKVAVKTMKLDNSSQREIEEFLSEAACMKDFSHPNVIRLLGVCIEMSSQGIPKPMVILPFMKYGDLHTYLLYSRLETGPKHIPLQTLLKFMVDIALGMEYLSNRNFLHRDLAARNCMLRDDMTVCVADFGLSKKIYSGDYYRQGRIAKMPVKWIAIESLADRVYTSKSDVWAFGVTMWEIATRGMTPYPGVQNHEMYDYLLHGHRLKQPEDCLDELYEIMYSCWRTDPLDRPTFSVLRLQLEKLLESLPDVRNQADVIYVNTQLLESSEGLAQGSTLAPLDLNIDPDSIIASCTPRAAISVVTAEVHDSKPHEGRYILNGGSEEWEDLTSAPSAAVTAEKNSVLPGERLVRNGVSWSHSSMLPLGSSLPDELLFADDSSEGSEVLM
VEGFR-2 kinase, sequence (P35968 20-1356): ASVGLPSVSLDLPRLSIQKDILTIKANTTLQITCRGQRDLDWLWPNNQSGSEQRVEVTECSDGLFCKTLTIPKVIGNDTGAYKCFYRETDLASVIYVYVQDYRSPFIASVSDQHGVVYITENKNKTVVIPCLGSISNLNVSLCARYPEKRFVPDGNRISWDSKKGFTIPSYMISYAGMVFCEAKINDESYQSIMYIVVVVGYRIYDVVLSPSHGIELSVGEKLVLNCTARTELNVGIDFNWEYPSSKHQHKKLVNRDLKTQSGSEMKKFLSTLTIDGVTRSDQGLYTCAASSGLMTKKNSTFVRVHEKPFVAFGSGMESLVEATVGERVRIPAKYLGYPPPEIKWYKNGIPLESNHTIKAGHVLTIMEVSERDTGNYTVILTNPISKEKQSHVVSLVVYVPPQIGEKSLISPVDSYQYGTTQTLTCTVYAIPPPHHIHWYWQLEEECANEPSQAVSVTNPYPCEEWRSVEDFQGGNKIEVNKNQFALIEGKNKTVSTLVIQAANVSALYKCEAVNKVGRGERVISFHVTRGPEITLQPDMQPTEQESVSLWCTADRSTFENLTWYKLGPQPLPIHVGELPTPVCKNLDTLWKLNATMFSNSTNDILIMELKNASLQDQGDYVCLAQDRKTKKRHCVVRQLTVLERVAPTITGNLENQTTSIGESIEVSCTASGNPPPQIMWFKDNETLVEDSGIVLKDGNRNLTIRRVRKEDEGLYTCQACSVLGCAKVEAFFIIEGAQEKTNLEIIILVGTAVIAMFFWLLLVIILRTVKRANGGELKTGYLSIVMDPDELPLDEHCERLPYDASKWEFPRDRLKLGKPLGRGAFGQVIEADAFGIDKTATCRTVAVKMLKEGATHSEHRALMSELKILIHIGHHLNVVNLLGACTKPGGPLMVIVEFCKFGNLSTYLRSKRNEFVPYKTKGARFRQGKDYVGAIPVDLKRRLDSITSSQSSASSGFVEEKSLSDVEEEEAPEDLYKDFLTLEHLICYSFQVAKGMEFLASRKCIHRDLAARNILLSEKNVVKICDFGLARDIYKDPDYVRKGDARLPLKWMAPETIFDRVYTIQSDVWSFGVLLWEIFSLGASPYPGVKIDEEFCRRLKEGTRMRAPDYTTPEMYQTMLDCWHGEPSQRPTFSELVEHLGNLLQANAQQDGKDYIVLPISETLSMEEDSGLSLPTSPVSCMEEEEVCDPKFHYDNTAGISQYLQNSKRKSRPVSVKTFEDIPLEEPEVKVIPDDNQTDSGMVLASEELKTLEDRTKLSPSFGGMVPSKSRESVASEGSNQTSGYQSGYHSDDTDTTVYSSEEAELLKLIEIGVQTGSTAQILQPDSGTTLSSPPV

SMILES | IC50 [1] | IC50 [3] | IC50 [5] | IC50 [6] | IC50 [7] | IC50 [8] | IC50 [9] | IC50 [2] | IC50 [4]
O=C(Nc1ccc(Oc2ccnc3cc(OCCCN4CCOCC4)c4c(c23)OCCO4)c(F)c1)c1cccn(-c2ccc(F)cc2)c1=O [Example 20, N-(3-fluoro-4-((5-(3-morpholinopropoxy)-2,3-dihydro-[1,4]dioxino[2,3-f]quinolin-10-yl)oxy)phenyl)-1-(4-fluorophenyl)-2-oxo-1,2-dihydropyridine-3-carboxamide] | < 50 nM | < 50 nM | – | – | – | – | – | ≤ 50 nM | ≤ 50 nM
CCOc1ccn(-c2ccc(F)cc2)c(=O)c1C(=O)Nc1ccc(Oc2ccnc3cc(OCCCCCCN(C)C)c4c(c23)OCCO4)c(F)c1 [Example 60, N-(4-((5-((6-dimethylamino)hexyloxy)-2,3-dihydro-[1,4]dioxino[2,3-f]quinolin-10-yl)oxy)-3-fluorophenyl)-4-ethoxy-1-(4-fluorophenyl)-2-oxo-1,2-dihydropyridine-3-carboxamide] | < 50 nM | < 50 nM | – | – | – | – | – | 50 to 200 nM | ≤ 50 nM
CCOc1ccn(-c2ccc(F)cc2)c(=O)c1C(=O)Nc1ccc(Oc2ccnc3cc(OCCCN(C)C)c4c(c23)OCCO4)c(F)c1 [Example 61, N-(4-((5-((3-dimethylamino)propoxy)-2,3-dihydro-[1,4]dioxino[2,3-f]quinolin-10-yl)oxy)-3-fluorophenyl)-4-ethoxy-1-(4-fluorophenyl)-2-oxo-1,2-dihydropyridine-3-carboxamide] | < 50 nM | < 50 nM | – | – | – | – | – | ≤ 50 nM | ≤ 50 nM
COc1cc2nccc(Oc3ccc(NC(=O)c4c(OC)ccn(-c5ccc(F)cc5)c4=O)c(Cl)c3)c2c2c1OCCO2 [Example 124, N-(2-chloro-4-((5-methoxy-2,3-dihydro-[1,4]dioxino[2,3-f]quinolin-10-yl)oxy)phenyl)-1-(4-fluorophenyl)-4-methoxy-2-oxo-1,2-dihydropyridine-3-carboxamide] | < 50 nM | < 50 nM | < 50 nM | ≤ 50 nM | 500 to 5000 nM | – | – | – | –
Cn1cc(C(=O)Nc2ccc(Oc3ccnc4ccc5c(c34)OCCO5)cc2)c(=O)n(-c2ccc(F)cc2)c1=O [Example 158, N-(4-((2,3-dihydro-[1,4]dioxino[2,3-f]quinolin-10-yl)oxy)phenyl)-3-(4-fluorophenyl)-1-methyl-2,4-dioxo-1,2,3,4-tetrahydropyrimidine-5-carboxamide] | 200 to 1000 nM | – | 50 to 500 nM | – | – | > 1000 nM | – | – | –
CCc1cc(Oc2ccnc3cc(OCCOC)c4c(c23)OCCO4)c(F)cc1NC(=O)c1cn(C)c(=O)n(-c2ccc(F)cc2)c1=O [Example 181, N-(5-fluoro-4-((5-(2-methoxyethoxy)-2,3-dihydro-[1,4]dioxino[2,3-f]quinolin-10-yl)oxy)-2-ethylphenyl)-3-(4-fluorophenyl)-1-methyl-2,4-dioxo-1,2,3,4-tetrahydropyrimidine-5-carboxamide] | – | – | < 50 nM | – | – | – | ≤ 50 nM | 50 to 200 nM | –

More lines, main results first:

IC50 [1] | IC50 [3] | IC50 [5] | IC50 [6] | IC50 [7] | IC50 [8] | IC50 [9] | SMILES | IC50 [2] | IC50 [4]
– | – | 50 to 500 nM | – | – | – | ≤ 50 nM | CCc1cc(Oc2ccnc3cc(OCCOC)c4c(c23)OCCO4)c(F)cc1NC(=O)c1cn(CC)c(=O)n(-c2ccc(F)cc2)c1=O [Example 182, N-(5-fluoro-4-((5-(2-methoxyethoxy)-2,3-dihydro-[1,4]dioxino[2,3-f]quinolin-10-yl)oxy)-2-ethylphenyl)-3-(4-fluorophenyl)-1-ethyl-2,4-dioxo-1,2,3,4-tetrahydropyrimidine-5-carboxamide] | ≤ 50 nM | –
– | – | 50 to 500 nM | – | – | – | 50 to 500 nM | COCCOc1cc2nccc(Oc3cc(C(C)C)c(NC(=O)c4cn(C)c(=O)n(-c5ccc(F)cc5)c4=O)cc3F)c2c2c1OCCO2 [Example 183, N-(5-fluoro-4-((5-(2-methoxyethoxy)-2,3-dihydro-[1,4]dioxino[2,3-f]quinolin-10-yl)oxy)-2-isopropylphenyl)-3-(4-fluorophenyl)-1-methyl-2,4-dioxo-1,2,3,4-tetrahydropyrimidine-5-carb oxamide] | > 1000 nM | –
– | – | 50 to 500 nM | – | – | – | – | CCn1cc(C(=O)Nc2cc(F)c(Oc3ccnc4cc(OCCOC)c5c(c34)OCCO5)cc2C(C)C)c(=O)n(-c2ccc(F)cc2)c1=O [Example 184, N-(5-fluoro-4-((5-(2-methoxyethoxy)-2,3-dihydro-[1,4]dioxino[2,3-f]quinolin-10-yl)oxy)-2-isopropylphenyl)-3-(4-fluorophenyl)-1-ethyl-2,4-dioxo-1,2,3,4-tetrahydropyrimidine-5-carboxamide] | > 1000 nM | –
